Values joined by “and” are separate entries in the source; they are usually repeats but may differ in a detail not shown here. Identical values can stand only once. Counter-ions that a name gives are not always drawn. Like-named read-outs stand apart in the source and are kept apart here. Square brackets hold non-standard residues; d marks the D form. Peptide text beside a SMILES is read from it. * marks the point of attachment. dNMePhg = CN[C@@H](C(=O)O)c1ccccc1; dHpg = N[C@@H](C(=O)O)c1ccc(O)cc1; dChg = N[C@@H](C(=O)O)C1CCCCC1; dPhg = N[C@@H](C(=O)O)c1ccccc1; Boc = CC(C)(C)OC(=O)* A value given as a limit tells only on which side of the number the result lay.

One assay has as its target T1, thrombin (Bos taurus, UniProt P00735).
T1 construct: purchased
Description: Inhibition of thrombin amidase activity (chromogenic substrate N-benzoyl-D-phenylalanyl-L-valyl-L-arginyl-p-nitroanilide). Type of assay: biochemical. How it is done: The data in the table were obtained in an assay in which thrombin hydrolyzes the chromogenic substrate, N-benzoyl-D-phenylalanyl-L-valyl-L-arginyl-p-nitroanilide.
The assay was carried out in 50 µl buffer (0.03M Tris, 0.15M NaCl, pH 7.4) with 25 µl of thrombin solution (0.21 mg/ml of thrombostat powder in 0.06 M Tris, 0.3M NaCl, pH 7.4) and 150 µl of an aqueous solution of the chromogenic substrate at a concentration of 0.25 mg/ml. Solutions of test compound (25 µl) at various concentrations were added. […] Standard curves were constructed by plotting free thrombin concentration against hydrolysis rate. […] The amount of free inhibitor in each assay was calculated by subtracting the number of moles of bound thrombin from the number of moles of added inhibitor (test compound).
The Kass value is the hypothetical equilibrium constant for the reaction between thrombin and the test compouhnd (I). Thrombin + I ⇄ Thrombin - I [formula] Kass =([Thrombin I])/([ (Thrombin) x (I) ]) [formula]
Kass was calculated for a range of concentrations of test compounds and the mean value is reported in units of liter per mole.

Assay [1] has as its target T2, bovine thrombin (Bos taurus, UniProt P00735).
T2 construct: 50 µl bovine thrombin (2 NIH unit/ml)
As to the kind of experiment: Thrombin time in buffer (fibrinogen instead of plasma). The note with it: buffer pH 7.5, fibrinogen instead of plasma; for EC (2-fold clotting time): read-out: Buffer (pH 7.5) Thrombin Time: concentration of test compounds required to prolong coagulation by 2-fold. In kind it is biochemical. Here is the method:
(§1) The numerical values in the table are the concentrations of the test compounds (ng/ml) required to prolong coagulation by 2-fold in the three tests. The thrombin time evaluation was carried out in plasma and separately determined in a buffer system at […].
(§2) The data presented in Table 2 were obtained using a CoaScreener instrument from Tecan, Inc. in the assay protocols listed below. Prothrombin Time: 50 µl plasma 50 µl saline 7 µl test solution 50 µl thromboplastin (Dade) Thrombin Time: 50 µl plasma 50 µl saline 7 µl test compound 50 µl bovine thrombin (2 NIH unit/ml) In the Thrombin Time determined in pH 7.4 buffer fibrinogen was used instead of plasma. APTT: 50 µl plasma 50 µl Actin (Dade) 7 µl test solution 50 µl CaCl2 (0.01M).

For assay [2], the system named is plasma. Description: Plasma coagulation assay: prothrombin time. Conditions: thromboplastin (Dade). Type of assay: biochemical. Here is the method:
as §1, §2

Assay [3] concerns plasma. As to the kind of experiment: Plasma coagulation assay: activated partial thromboplastin time (APTT). Type of assay: biochemical. The note with it: Actin (Dade), CaCl2. How it is done: as §1, §2
The target in assay [4] is T2, bovine thrombin. As to the kind of experiment: Plasma coagulation assay: thrombin time. In kind it is biochemical. The note with it: plasma, bovine thrombin (2 NIH unit/ml); for EC (2-fold clotting time): read-out: Thrombin Time: concentration of test compounds required to prolong coagulation by 2-fold. Here is the method: as §1, §2
Assay [5] concerns Arterial Thrombosis in the Rat. As to the kind of experiment: FeCl3-induced arterial thrombosis in the carotid artery of the rat. In kind it is in vivo. Conditions: infusion from 15 min before to 60 min after FeCl3 application, NA = Not active at 4 mg/kg/h or at 7 mg/kg/h, the highest doses tested.
Description: The antithrombotic activity of representative compounds of the invention was determined in in vivo tests carried out in the rat. The test employed induced arterial thrombosis in the carotid artery of the rat and measured the infusion dose of test compound required to maintain blood flow for fifty minutes past the time of occlusion. The test was performed as follows.
Arterial thrombosis was induced in the rat by injury of the carotid artery. Topical application of a ferric chloride solution was used to injure the vessel. […] Animals were laid on a water blanket in which the circulated water was maintained at 37° C. The carotid artery was approached through a midline cervical incision. Careful blunt dissection was used to expose and isolate the vessel from the carotid sheath. A silk suture was pulled underneath the artery to lift the vessel to provide clearance to insert a thermocouple underneath it. […] The discs were cut to equal size using sharpened stainless steel tubing (3 mm i.d.) chucked in a drill press. A saturated disc was placed on each carotid artery above the thermocouple. The time between FeCl3 application and the time at which temperature decreased abruptly was recorded as time to occlusion (TTO) of the vessel. The average time required for both vessels to occlude was used to represent TTO for each animal.
Test compounds were dissolved in isotonic saline. A syringe pump was used to infuse drug solutions starting 15 min before FeCl3 application and continuing for 60 min after FeCl3 application. Dose-response curves were plotted to determine the relationship between the log10 of the infused doses and the TTO of the injured arteries.
The association between vessel occlusion and the abrupt temperature decrease was established by simultaneously recording the temperature and blood flow on the same recorder. A pulsed Doppler flow probe was placed around the carotid artery proximal to the thermocouple. […] Results were reported as percent change from initial baseline values (6 min before occlusion). The time at which vessel temperature decreased rapidly was arbitrarily established as zero and pre- and post-occlusion temperature and flow values were referenced from that point.
Where [6] appears, read: Thrombin Amidase Kass, apparent equilibrium (association) constant, mean over a range of concentrations, pH 7.4, acetate salts unless indicated otherwise.
Where [7] appears, read: apparent equilibrium (association) constant, mean over a range of concentrations, pH 7.4, acetate salts unless indicated otherwise, read-out: Thrombin Amidase Kass (converted).

For `CC(C)(C)OC(=O)N[C@@H](C(=O)N1CCC[C@H]1C(=O)N[C@H](C=O)CCCNC(=N)N)c1ccc2ccccc2c1` [N-Boc-D-2-naphthylglycyl, N-Boc-D-2-naphthylglycyl-Pro-Arg-H diacetate], the Kd at thrombin is 45 nM. Moreover, the “Buffer (pH 7.5) Thrombin Time: concentration of test compounds required to prolong coagulation by 2-fold” value on bovine thrombin [1] is listed as 142 ng/ml. Moreover, the “Prothrombin Time: concentration of test compounds required to prolong coagulation by 2-fold” value (“Prothrombin Time: concentration … by 2-fold” for short) in the assay with plasma [2] was found to be 1200 ng/mL. The “APTT: concentration of test compounds required to prolong coagulation by 2-fold” value (“APTT: concentration … by 2-fold” for short) in the assay on plasma [3] was 1200 ng/mL. Moreover, the “Thrombin Time: concentration of test compounds required to prolong coagulation by 2-fold” value on bovine thrombin [4] was determined as 230 ng/mL.

`CC(C)(C)OC(=O)N[C@@H](C(=O)N1CCC[C@H]1C(=O)N[C@H](C=O)CCCNC(=N)N)c1cccs1` [N-Boc-D-2-thienyiglycyl]: at thrombin (setting [6]), the Kd was 71.4 nM.

Consider `CC(C)(C)OC(=O)N[C@@H](C(=O)N1CCC[C@H]1C(=O)N[C@H](C=O)CCCNC(=N)N)c1ccc(O)cc1` [N-Boc-D-(4-hydroxy)phenylglycyl, N-Boc-D-(4-hydroxyphenylglycyl)-Pro-Arg-H diacetate] (Boc-[dHpg]-Pro-Arg-aldehyde), for which, in the assay on plasma [2], the “Prothrombin Time: concentration … by 2-fold” value was 1636 ng/mL. In addition, the “APTT: concentration … by 2-fold” value in the assay on plasma [3] came to 1091 ng/mL. The EC (2-fold clotting time) on bovine thrombin [4] worked out at 0.182 µg/mL.

Consider `CC(C)(C)OC(=O)N[C@@H](C(=O)N1CCC[C@H]1C(=O)N[C@H](C=O)CCCN=C(N)N)c1ccc(O)cc1` [N-Boc-D-(4-hydroxy)phenylglycyl, N-Boc-D-(4-hydroxyphenylglycyl)-Pro-Arg-H diacetate] (Boc-[dHpg]-Pro-Arg-aldehyde), for which the Kd on thrombin (setting [6]) was 8.7 nM.

In the case of `CC(C)(C)OC(=O)N[C@@H](C(=O)N1CCC[C@H]1C(=O)N[C@H](C=O)CCCN=C(N)N)C1CCCCC1` [N-Boc-D-cyclohexylglycyl] (Boc-[dChg]-Pro-Arg-aldehyde), the Kd on thrombin (setting [6]) is 8.33 nM.

As to `CC(C)(C)OC(=O)N[C@@H](C(=O)N1CCC[C@H]1C(=O)N[C@H](C=O)CCCNC(=N)N)C1CCCCC1` [N-Boc-D-cyclohexylglycyl] (Boc-[dChg]-Pro-Arg-aldehyde), the “ED50 (infusion dose required to maintain blood flow for 50 min)” value in assay [5] is reported as 11.3 mg/kg/h. The EC (2-fold clotting time) on bovine thrombin [1] turned out to be 0.06 µg/mL; on bovine thrombin [4], 0.079 µg/mL. For the same molecule, the “Prothrombin Time: concentration … by 2-fold” value with plasma [2] turned out to be 522 ng/mL. Moreover, the “APTT: concentration … by 2-fold” value in the assay on plasma [3] stood at 748 ng/mL.

Consider `N=C(N)NCCC[C@@H](C=O)NC(=O)[C@@H]1CCCN1C(=O)[C@H](N)c1ccccc1` [D-Phenylglycyl, D-Phg-L-Pro-L-Arg-H] (H-[dPhg]-Pro-Arg-aldehyde), for which the “Prothrombin Time: concentration … by 2-fold” value in the assay on plasma [2] was found to be 91 ng/mL. Moreover, the “APTT: concentration … by 2-fold” value with plasma [3] worked out at 1139 ng/mL. Moreover, at bovine thrombin [4], the EC (2-fold clotting time) was determined as 0.091 µg/mL.

As to `N=C(N)NCCC[C@@H](C=O)NC(=O)[C@@H]1CCCN1C(=O)C1NCCc2ccccc21` (mixture of isomers), the Kd at thrombin (setting [6]) is 11.4 nM.

In the case of `CO[C@@H](C(=O)N1CCC[C@H]1C(=O)N[C@H](C=O)CCCNC(=N)N)c1ccccc1` [(R)-α-Methoxyphenylacetyl], the Kd at thrombin (setting [7]) was 238 nM. In addition, in the assay with plasma [2], the “Prothrombin Time: concentration … by 2-fold” value was greater than 909 ng/mL. Besides, in the assay with plasma [3], the “APTT: concentration … by 2-fold” value was greater than 909 ng/mL.

With `CC(C)(C)OC(=O)N[C@@H](C(=O)N1CCC[C@H]1C(=O)N[C@H](C=O)CCCN=C(N)N)c1ccccc1` [N-Boc-D-phenylglycyl, N-(t-Butyloxycarbonyl)-D-phenylglycyl-L-Prolyl-L-Arginine aldehyde (Boc-D-Phg-Pro-Arg-H) diacetate salt] (Boc-[dPhg]-Pro-Arg-aldehyde), the Kd on thrombin (setting [6]) was 11.4 nM and 13.7 nM.

For the molecule `CN[C@@H](C(=O)N1CCC[C@H]1C(=O)N[C@H](C=O)CCCNC(=N)N)c1ccccc1` [N-Methyl-D-phenylglycyl, N-methyl-D-phenylglycyl-L-prolyl-L-arginine aldehyde] (H-[dNMePhg]-Pro-Arg-aldehyde), the Kd at thrombin (setting [6]) was 10.9 nM. Further, the EC (2-fold clotting time) at bovine thrombin [1] came to 0.067 µg/mL; on bovine thrombin [4] it was 0.092 µg/mL. Further, in the assay on plasma [2], the “Prothrombin Time: concentration … by 2-fold” value amounted to 899 ng/mL. Also, the “APTT: concentration … by 2-fold” value in the assay on plasma [3] was greater than 909 ng/mL.

For the molecule `COc1ccc2cc([C@@H](NC(=O)OC(C)(C)C)C(=O)N3CCC[C@H]3C(=O)N[C@H](C=O)CCCNC(=N)N)ccc2c1` [N-Boc-D-(6-methoxy)-2-naphthylglycyl], at thrombin (setting [6]), the Kd was 164 nM. Besides, the EC (2-fold clotting time) stood at 0.466 µg/mL on bovine thrombin [1] and 0.46 µg/mL at bovine thrombin [4]. The “Prothrombin Time: concentration … by 2-fold” value in the assay on plasma [2] turned out to be 35489 ng/mL. Besides, the “APTT: concentration … by 2-fold” value in the assay with plasma [3] amounted to 2239 ng/mL.

In the case of `CC(C)(C)OC(=O)NC(C(=O)N1CCC[C@H]1C(=O)N[C@H](C=O)CCCNC(=N)N)c1ccc(Cl)c(Cl)c1` (mixture of isomers) [N-Boc-DL-(3,4-dichloro)phenylglycyl], at thrombin (setting [6]), the Kd is 25 nM.

`COc1ccc([C@@H](NC(C)=O)C(=O)N2CCC[C@H]2C(=O)N[C@H](C=O)CCCNC(=N)N)cc1` [N-Acetyl-D-(4-methoxy)phenylglycyl]: on thrombin (setting [6]), the Kd was 64.5 nM. Further, the “Prothrombin Time: concentration … by 2-fold” value with plasma [2] was 900 ng/mL. Also, the “APTT: concentration … by 2-fold” value in the assay with plasma [3] came out at 2600 ng/mL. At bovine thrombin [4], the EC (2-fold clotting time) stood at 0.16 µg/mL.

`CC[C@@H](C(=O)N1CCC[C@H]1C(=O)N[C@H](C=O)CCCNC(=N)N)c1ccccc1` [(R)-α-Ethylphenylacetyl]: on thrombin (setting [7]), the Kd is 133 nM. Also, the “Prothrombin Time: concentration … by 2-fold” value with plasma [2] is 700 ng/mL. In addition, in the assay on plasma [3], the “APTT: concentration … by 2-fold” value amounted to 2275 ng/mL.

For the molecule `NC(N)=NCCC[C@@H](C=O)NC(=O)[C@@H]1CCCN1C(=O)[C@H](N)c1ccccc1` [D-Phenylglycyl, D-Phg-L-Pro-L-Arg-H] (H-[dPhg]-Pro-Arg-aldehyde), the Kd on thrombin (setting [6]) is 13.3 nM.

Take `CC(C)(C)OC(=O)N1CCc2ccccc2C1C(=O)N1CCC[C@H]1C(=O)N[C@H](C=O)CCCNC(=N)N` (mixture of isomers) [Boc-1,2,3,4-tetrahydroisoquinolin-1-ylcarbonyl-Pro-Arg-H]: the Kd at thrombin (setting [6]) is 263 nM.

Turning to `CC(C)(C)OC(=O)N[C@@H](C(=O)N1CCC[C@H]1C(=O)N[C@H](C=O)CCCN=C(N)N)c1ccccc1` [N-Boc-D-phenylglycyl (sulfate salt), N-Boc-D-Phenylglycyl-L-Prolyl-L-Arginine aldehyde (Boc-D-Phg-Pro-Arg-H) hemisulfate] (Boc-[dPhg]-Pro-Arg-aldehyde), the Kd on thrombin (setting [6]) was 9.35 nM.

With `CN(C(=O)OC(C)(C)C)[C@@H](C(=O)N1CCC[C@H]1C(=O)N[C@H](C=O)CCCNC(=N)N)c1ccccc1` [N-Boc-N-methyl-D-phenylglcyl] (Boc-[dNMePhg]-Pro-Arg-aldehyde), the Kd at thrombin (setting [6]) was 192 nM. Besides, in the assay on plasma [2], the “Prothrombin Time: concentration … by 2-fold” value amounted to 300 ng/mL. Also, in the assay with plasma [3], the “APTT: concentration … by 2-fold” value was determined as 4545 ng/mL. Moreover, the EC (2-fold clotting time) at bovine thrombin [4] worked out at 0.3 µg/mL.

As to `COc1ccc([C@@H](NC(=O)OC(C)(C)C)C(=O)N2CCC[C@H]2C(=O)N[C@H](C=O)CCCNC(=N)N)cc1` [N-Boc-D-(4-methoxy)phenylglycyl], the Kd at thrombin (setting [6]) was 13.3 nM. Besides, the “APTT: concentration … by 2-fold” value in the assay with plasma [3] worked out at 640 ng/mL. Moreover, the EC (2-fold clotting time) on bovine thrombin [4] is 0.08 µg/mL.

For the molecule `C[C@H](C(=O)N1CCC[C@H]1C(=O)N[C@H](C=O)CCCNC(=N)N)c1ccccc1` [(S)-α-Methylphenylacetyl], on thrombin (setting [7]), the Kd is 5000 nM.

`C[C@@H](C(=O)N1CCC[C@H]1C(=O)N[C@H](C=O)CCCNC(=N)N)c1ccccc1` [(R)-α-Methylphenylacetyl]: the Kd at thrombin (setting [7]) was 90.9 nM.

The values above are taken from patent EP0837071A1, “Tripeptide antithrombotic agents” (ELI LILLY AND COMPANY, priority 1990, dated 1992).
